Experimental data as given in PubChem BioAssay (NCI).
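1) Cells in 96-well plates. 2) Compound, 48 h, 5 concentrations. 3) Linear interpolation between surrounding doses. 4) Unreached endpoint = highest concentration. Abbreviation: GI50, concentration required for 50% inhibition of growth. The concentration for full growth arrest is given as TGI.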

Columns and labels:
Test in all cases: NCI tumour cell line growth inhibition, 48 h
[1] = test system: UO-31 renal
[2] = test system: COLO 205 colon
[3] = test system: SF-268 CNS
[4] = test system: U251 CNS
[5] = test system: A549 NSCLC
[6] = test system: RXF 393 renal
[7] = test system: EKVX NSCLC
[8] = test system: M14 melanoma
[9] = test system: HL-60(TB) leukemia
[10] = test system: SW-620 colon

Compound: O=C(O[C@H]1CN[C@H](C#Cc2cc3ncnc(Nc4ccc(OCc5cccc(F)c5)c(Cl)c4)c3s2)C1)N1CCOCC1
- GI50 [1]: 4.41 µM
- TGI [1]: > 15.8 µM
- GI50 [2]: 5.32 µM
- TGI [2]: 11.1 µM
- GI50 [3]: 5.81 µM
- TGI [3]: > 25 µM
- GI50 [4]: 8.7 µM
- TGI [4]: > 25 µM
- GI50 [5]: 6 µM
- TGI [5]: > 25 µM
- GI50 [6]: 5.85 µM
- TGI [6]: > 16.6 µM
- GI50 [7]: 0.6 µM
- TGI [7]: 24.2 µM
- GI50 [8]: 12.6 µM
- TGI [8]: > 25 µM
- GI50 [9]: 6.11 µM
- TGI [9]: 15.1 µM
- GI50 [10]: 12.2 µM
- TGI [10]: > 25 µM

Compound: CC(C)Cc1ccc(C(C)/C=C2\CCC(CN3CCCC3)C2=O)cc1 (stereo not given)
- TGI [1]: 29.5 µM
- TGI [2]: 22.1 µM
- TGI [3]: 12.3 µM
- TGI [4]: 17.9 µM
- TGI [5]: 35 µM
- TGI [6]: 34.3 µM
- TGI [7]: 33.3 µM
- TGI [8]: 29.6 µM
- TGI [9]: > 100 µM
- TGI [10]: 29.7 µM

Compound: O=C(NC1CCN(Cc2ccccc2)CC1)c1cc(C(=O)NC2CCN(Cc3ccccc3)CC2)cc(C(=O)NC2CCN(Cc3ccccc3)CC2)c1
- GI50 [1]: > 50 µM
- TGI [1]: > 50 µM
- GI50 [2]: 3.62 µM
- TGI [2]: 10.6 µM
- GI50 [3]: 8.25 µM
- TGI [3]: 18.8 µM
- GI50 [4]: 1.52 µM
- TGI [4]: 5.66 µM
- GI50 [5]: 6.68 µM
- TGI [5]: 15.4 µM
- GI50 [6]: 2.16 µM
- TGI [6]: 10.2 µM
- GI50 [9]: 15.1 µM
- TGI [9]: > 50 µM
- GI50 [10]: 3.86 µM
- TGI [10]: 13 µM

Compound: C/C=C1\C(=O)O[C@@H]2C1C[C@@H]1O[C@H]2[C@H](C)CCC/C(C)=C/CC[C@@]1(C)O (stereo not given in full)
- GI50 [1]: 3.02 µM
- TGI [1]: 10.4 µM
- GI50 [2]: 8.16 µM
- TGI [2]: 41.8 µM
- GI50 [3]: 8.45 µM
- TGI [3]: 23 µM
- GI50 [4]: 10.3 µM
- TGI [4]: 23.6 µM
- GI50 [5]: 10.6 µM
- TGI [5]: 22.5 µM
- GI50 [6]: 2.59 µM
- TGI [6]: 6.99 µM
- GI50 [7]: 2.22 µM
- TGI [7]: 5.53 µM
- GI50 [9]: 5.55 µM
- TGI [9]: > 100 µM
- GI50 [10]: 4.14 µM
- TGI [10]: 15 µM

Compound: c1ccc2c(c1)nnn2CNc1ccc(N2CCOCC2)cc1
- TGI [1]: > 100 µM
- TGI [2]: > 100 µM
- TGI [3]: > 100 µM
- TGI [4]: > 100 µM
- TGI [5]: > 100 µM
- TGI [6]: > 100 µM
- TGI [7]: > 100 µM
- TGI [8]: > 100 µM
- TGI [9]: > 100 µM
- TGI [10]: > 100 µM

Compound: Cc1[nH]c2ccccc2c1C1CC(=O)NC1=O (stereo not given)
- TGI [1]: > 100 µM
- TGI [4]: > 100 µM
- TGI [5]: > 100 µM
- TGI [6]: > 100 µM
- TGI [7]: > 100 µM
- TGI [8]: > 100 µM
- TGI [9]: > 100 µM
- TGI [10]: > 100 µM

Compound: C[C@@H](Oc1cc(NS(=O)(=O)N2CCC2)nc(SCc2cccc(F)c2F)n1)[C@@H](O)CO
- GI50 [1]: > 100 µM
- TGI [1]: > 100 µM
- GI50 [2]: > 100 µM
- TGI [2]: > 100 µM
- GI50 [3]: > 100 µM
- TGI [3]: > 100 µM
- GI50 [4]: > 100 µM
- TGI [4]: > 100 µM
- GI50 [5]: > 100 µM
- TGI [5]: > 100 µM
- GI50 [6]: > 100 µM
- TGI [6]: > 100 µM
- GI50 [7]: > 100 µM
- TGI [7]: > 100 µM
- GI50 [8]: > 100 µM
- TGI [8]: > 100 µM
- GI50 [9]: > 100 µM
- TGI [9]: > 100 µM
- GI50 [10]: > 100 µM
- TGI [10]: > 100 µM

Compound: N#Cc1ccc(-c2nc3ccc(Cl)cc3[nH]2)cc1
- TGI [1]: > 100 µM
- TGI [2]: > 100 µM
- TGI [4]: > 100 µM
- TGI [5]: > 100 µM
- TGI [6]: > 100 µM
- TGI [7]: > 100 µM
- TGI [8]: > 100 µM
- TGI [9]: > 100 µM
- TGI [10]: > 100 µM

Compound: S=P(c1ccccc1)(c1ccccc1)C1(C2(P(=S)(c3ccccc3)c3ccccc3)CC2)CC1
- TGI [1]: > 100 µM
- TGI [2]: > 100 µM
- TGI [3]: > 100 µM
- TGI [4]: > 100 µM
- TGI [5]: > 100 µM
- TGI [6]: > 100 µM
- TGI [7]: > 100 µM
- TGI [8]: > 100 µM
- TGI [10]: > 100 µM

Compound: O=C1NC(=O)C(=O)C(c2nc3ccccc3s2)C1=O
- TGI [1]: > 100 µM
- TGI [2]: > 100 µM
- TGI [3]: > 100 µM
- TGI [4]: > 100 µM
- TGI [5]: > 100 µM
- TGI [6]: > 100 µM
- TGI [7]: > 100 µM
- TGI [8]: > 100 µM
- TGI [9]: > 100 µM
- TGI [10]: > 100 µM

Compound: CC(Oc1ccc(OCC2CCCCC2)cc1)C(=O)O (stereo not given)
- TGI [1]: > 100 µM
- TGI [3]: > 100 µM
- TGI [4]: > 100 µM
- TGI [5]: > 100 µM
- TGI [8]: > 100 µM
- TGI [9]: > 100 µM
- TGI [10]: > 100 µM

Compound: O=C(N/C(=C\c1ccc([N+](=O)[O-])cc1)c1nc2ccc(Cl)cc2[nH]1)c1ccccc1
- TGI [1]: 33.5 µM
- TGI [3]: 42.8 µM
- TGI [4]: 34.9 µM
- TGI [5]: 74.8 µM
- TGI [6]: 58.3 µM
- TGI [7]: 74.6 µM
- TGI [8]: 31.3 µM
- TGI [9]: 48.5 µM
- TGI [10]: 61.3 µM

Compound: COc1cc([C@@H]2c3cc4c(cc3[C@H](OC(C)=O)[C@H]3COC(=O)[C@H]23)OCO4)cc(OC)c1OC
- GI50 [1]: 0.0808 µM
- TGI [1]: > 100 µM
- GI50 [2]: 0.0288 µM
- TGI [2]: 0.0785 µM
- GI50 [3]: 0.0484 µM
- TGI [3]: > 100 µM
- GI50 [4]: 0.0352 µM
- TGI [4]: > 100 µM
- GI50 [5]: 0.0349 µM
- TGI [5]: > 100 µM
- GI50 [6]: 0.0691 µM
- TGI [6]: > 100 µM
- GI50 [7]: 0.0568 µM
- TGI [7]: > 100 µM
- GI50 [9]: 0.0223 µM
- TGI [9]: 0.0602 µM
- GI50 [10]: 0.0334 µM
- TGI [10]: > 100 µM

Compound: Cc1ccc(C(=O)CCC2C(=O)CC(C)(C)CC2=O)cc1
- TGI [1]: > 100 µM
- TGI [2]: > 100 µM
- TGI [3]: > 100 µM
- TGI [4]: > 100 µM
- TGI [5]: > 100 µM
- TGI [6]: > 100 µM
- TGI [7]: > 100 µM
- TGI [8]: > 100 µM
- TGI [10]: > 100 µM

Compound: O=C(COc1ccc(Cl)cc1)N1N=C(c2ccc([N+](=O)[O-])o2)CC1(O)c1ccccc1 (stereo not given)
- TGI [1]: 23.6 µM
- TGI [2]: 14.8 µM
- TGI [3]: 33.4 µM
- TGI [4]: 15.5 µM
- TGI [5]: 28.8 µM
- TGI [8]: 29.5 µM
- TGI [9]: 12 µM
- TGI [10]: 21.5 µM

Compound: NCCCn1c2c(c3cc4c(cc3c1=O)OCO4)C(=O)c1ccccc1-2
- GI50 [2]: 3.61 µM
- TGI [2]: > 100 µM
- GI50 [3]: 3.75 µM
- TGI [3]: 16.5 µM
- GI50 [4]: 0.321 µM
- TGI [4]: 0.753 µM
- GI50 [7]: 0.842 µM
- TGI [7]: 2.55 µM
- GI50 [8]: 0.43 µM
- TGI [8]: 1.1 µM
- GI50 [9]: 1.48 µM
- TGI [9]: 2.93 µM

Compound: C[C@@H](NC1CCC[C@@H]1O)c1ccccc1 (stereo not given in full)
- TGI [1]: > 100 µM
- TGI [2]: > 100 µM
- TGI [4]: > 100 µM
- TGI [5]: > 100 µM
- TGI [6]: > 100 µM
- TGI [7]: > 100 µM
- TGI [8]: > 100 µM
- TGI [9]: > 100 µM
- TGI [10]: > 100 µM

Compound: COC1OC(CBr)C(OC(c2ccccc2)(c2ccccc2)c2ccccc2)C(OC(c2ccccc2)(c2ccccc2)c2ccccc2)C1OC(c1ccccc1)(c1ccccc1)c1ccccc1 (stereo not given)
- TGI [1]: 36.8 µM
- TGI [2]: > 100 µM
- TGI [3]: > 100 µM
- TGI [5]: > 100 µM
- TGI [6]: > 100 µM
- TGI [7]: 70.2 µM
- TGI [8]: > 100 µM
- TGI [9]: > 100 µM
- TGI [10]: > 100 µM

Compound: CC1=C(/C=C/C2=CC(=C\C(=O)O)/CC(C3=C(C)CCCC3(C)C)C2)C(C)(C)CCC1 (stereo not given)
- TGI [1]: 22.5 µM
- TGI [2]: 30.7 µM
- TGI [3]: 36.1 µM
- TGI [4]: 23.1 µM
- TGI [5]: 19.6 µM
- TGI [6]: 22.6 µM
- TGI [7]: 23.4 µM
- TGI [8]: 28.5 µM
- TGI [10]: 29.1 µM
